How the values were obtained:
[1] = tested on: Mn2+ influx through SOCC in Jurkat cells; experiment: Mn2+ influx by Indo-1 quenching in Jurkat cells; type: cell-based, human; conditions: 1 µM
Source text: As [Ca^2+]cyt results from a balance between Ca^2+ influx and efflux, this decay was due to the activity of the plasma membrane Ca^2+ ATPases (“PMCA”) and the Na^+/Ca^2+ exchanger (“NCX”) counteracting the SOCE (TG has blocked the SERCA activity, impairing Ca^2+ uptake in the ER). To ensure that compound P11 acted on the SOCE and not on the Ca^2+-efflux mechanisms, we next performed a Mn^2+-quenching experiment with Indo-1. Mn^2+ ions enter the cells through SOCC but cannot be pumped outside the cells by PMCA and NCX; once in the cells, Mn^2+ bound to Indo-1 and quenched its fluorescence measured at 430 nm. Thus, an increase of the Mn^2+ influx amplitude was associated with an increase of the Indo-1 quenching speed, and reversely.
After a 10 min TG treatment to open the SOCC, 100 µM MnCl2 was added. Mn^2+ induced a quenching rate of −0.89 ± 0.05% Fo/s (n = 3, Figure 3A). […]
To study directly the divalent ion influx through the SOCC with selected 2-APB analogs, we performed Mn^2+ quenching experiments. Mn^2+ ions bind to Indo-1 and quench the 430 nm emission wavelength fluorescence after excitation at 360 nm. The decrease of fluorescence is directly dependent on Mn^2+ entry through SOCC. […] After 60 s a 2-APB analog was added as indicated and the change in the curve slope was measured.

[2] = tested on: ER Ca2+ stores of L15 fibroblasts; experiment: Basal Ca2+ leak from ER stores, unidirectional 45Ca2+ flux in permeabilized L15 fibroblasts; type: cell-based
Procedure: Measurements of SERCA-mediated ^45Ca^2+ store loading and IP3-dependent release from the ER Ca^2+ store were performed on permeabilized cells in unidirectional conditions. As this approach required the use of cells forming strongly adherent monolayers, we used L15 fibroblasts stably overexpressing IP3R1, similarly to our previous work.
The L15 fibroblasts stably overexpressing IP3R1 were seeded in gelatin-coated 12-well plates (Greiner, Frickenhausen, Germany) at a density of 60,000 cells per well. Unidirectional ^45Ca^2+ flux experiments on confluent cell monolayers were performed at 30 °C after membrane permeabilization with saponin (40 µg/mL), exactly as previously described. After permeabilization, the non-mitochondrial Ca^2+ stores were loaded for 45 min in 120 mM KCl, 30 mM imidazole–HCl (pH 6.8), 5 mM MgCl2, 5 mM ATP, 0.44 mM EGTA, 10 mM NaN3, and 150 nM free ^45Ca^2+ (28 µCi mL^−1). Subsequently, efflux was initiated by incubation in efflux medium (120 mM KCl, 1 mM EGTA, 10 µM TG and 30 mM imidazole–HCl pH 6.8). […] The exact amount of Ca^2+ at each time point is calculated by summing in retrograde order the amount of radioactivity remaining in the cells at the end of the efflux and the radioactivity collected during the successive time intervals. […] These various parameters were measured both in control conditions or in the presence of various 2-APB analogs as indicated. […]

For “2-(dibiphenyl-4-ylboryloxy)ethanamine [P11]”, the “blockade of Mn2+ quenching rate” value [1] was “≈ 90%”, the “Indo-1 quenching rate by Mn2+” value ([1]; added 30 s prior to 100 µM MnCl2) was -0.09 ± 0.01 % Fo/s and the “Ca2+ leak from the ER by an IP3-independent pathway” value [2] was “did not induce a Ca^2+ leak”.
